The results in this text go back to patent US20240092761A1, “QUINAZOLINE COMPOUNDS AND METHODS OF USE” (IAMBIC THERAPEUTICS, INC., priority 2022, published 2024).

SMILES strings stand for the structures.

One assay has as its system MCF-7 cells. As to the kind of experiment: Cell Growth Inhibition, MCF-7 (CellTiterGlo, 6 days). In kind it is cell-based. As to conditions: Homo sapiens, MCF7, 144 h; MCF-7, 6-day treatment, CellTiterGlo 2.0. An excerpt: (§1) MCF-7 and OVCAR-3 cells were used to evaluate the anti-proliferation activity of the CDK inhibitors. MCF-7 (ATCC, HTB-22) cells are epithelial cells from a patient with ER+ metastatic adenocarcinoma. OVCAR-3 (ATCC, HTB-161) cells were derived from malignant ascites of a patient with ovarian cancer and are known to have CCNE1 amplification. Both cell lines were maintained in RPMI media supplemented with 10% fetal bovine serum. For cell growth inhibition assay, CDK inhibitors in DMSO solution were dispensed with either Echo 655 (Beckman Coulter) or Tecan D300e (HP) into 384-well plates (Corning #3765) and the 384-well plates were UV-sterilized prior to the assay. The inhibitors were typically tested in the 10-10,000 nM concentration range with half-log serial dilutions. MCF-7 or OVCAR-3 (500 cells/30 μL/well) were added to each well using Multidrop Combi (ThermoFisher) using standard cassettes. The assay plates with cells were cultured at 37° C., 5% CO2 for 6 days. At the end of the 6-day treatment, 30 μL of CellTiterGlo 2.0 (Promega) was added to each well and the luminescent signal was read using CLARIOstar plus (BMG). The percentage of cell growth inhibition (% CGI) was calculated using the following formula % CGI=100−100×luminescencesample/luminescencecontrol. The half maximal inhibitory concentration (IC50) was determined by nonlinear curve fitting (four parameters, variable slope).
A general note: Cellular ATP, detected with luciferase, serves as a proxy for viable cell number.

In the next assay the target is CDK6/Cyclin D3 (Homo sapiens (Human), UniProt Q00534). As to the kind of experiment: CDK6/Cyclin D3 ADP-Glo Kinase Assay. In kind it is biochemical. As to conditions: 100 uM ATP, read-out: CDK6/ CyclinD3 IC50. On the procedure:
CDK6/Cyclin D3 ADP-Glo Kinase Assay
The purpose of the CDK6/Cyclin D3 assay is to evaluate the inhibition (% inhibition and IC50 values) in the presence of small molecule inhibitors by using a Luminescent based ADP-Glo assay. CDK6/Cyclin D3 catalyzes the production of ADP from ATP. ADP-Glo assay monitors ADP producing biochemical reactions. ADP-Glo is performed in 2 steps upon completion of kinase reaction: a combined termination of kinase reaction and depletion of remaining ATP in the first step, and conversion of generated ADP to ATP and the newly produced ATP to light output using luciferase/luciferin reaction in the second step. The luminescent signal generated is proportional to the ADP concentration produced and is correlated with the kinase activity. CDK6/Cyclin D3 was purchased from Carna. […] The assay was initiated with the addition of ATP-containing substrate solution, following a 30-minute pre-incubation of enzyme and inhibitor at room temperature in the reaction mixture. The reaction was stopped after 90 minutes at room temperature by the addition of 10 uL of ADP-GLO Reagent. After a 90-minute incubation, 20 uL of Kinase Detection Reagent was added. Samples were incubated for 40 minutes, after which plate well luminescence was measured on a Envision microplate reader. The IC50 determinations were made from a plot of the fractional velocity as a function of inhibitor concentration fit to the 4 parameters IC50 equation.
Background: ADP-Glo first removes unused ATP, then detects ADP through luciferase.

In the next assay the target is CDK1/Cyclin B1 (Homo sapiens (Human), UniProt P06493). As to the kind of experiment: CDK1/Cyclin B1 ADP-Glo Kinase Assay. In kind it is biochemical. Particulars: 80 uM ATP. The procedure: CDK1/Cyclin B1 ADP-Glo Kinase Assay
Chain of CDK1/Cyclin B1 (P06493 whole entry): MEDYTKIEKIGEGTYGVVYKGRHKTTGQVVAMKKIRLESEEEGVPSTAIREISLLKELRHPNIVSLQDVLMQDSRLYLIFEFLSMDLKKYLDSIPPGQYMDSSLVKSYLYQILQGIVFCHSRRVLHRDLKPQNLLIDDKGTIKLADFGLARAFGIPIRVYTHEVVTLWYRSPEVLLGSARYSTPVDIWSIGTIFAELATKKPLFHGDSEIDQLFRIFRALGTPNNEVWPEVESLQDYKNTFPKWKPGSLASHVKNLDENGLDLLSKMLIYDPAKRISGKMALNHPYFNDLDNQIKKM
Chain of CDK1/Cyclin B1 (P14635 whole entry partner): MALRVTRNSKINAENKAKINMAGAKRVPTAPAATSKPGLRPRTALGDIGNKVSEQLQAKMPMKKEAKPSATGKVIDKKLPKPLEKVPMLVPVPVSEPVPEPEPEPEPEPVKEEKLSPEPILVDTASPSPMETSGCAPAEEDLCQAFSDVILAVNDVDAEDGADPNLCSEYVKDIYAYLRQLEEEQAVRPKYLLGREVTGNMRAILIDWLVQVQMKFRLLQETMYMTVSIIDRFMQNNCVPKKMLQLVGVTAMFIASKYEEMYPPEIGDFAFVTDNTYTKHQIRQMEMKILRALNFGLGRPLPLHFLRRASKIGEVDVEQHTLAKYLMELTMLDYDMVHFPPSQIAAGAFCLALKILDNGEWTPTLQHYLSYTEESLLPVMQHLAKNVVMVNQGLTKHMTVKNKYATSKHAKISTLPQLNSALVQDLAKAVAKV
The purpose of CDK1/Cyclin B1 assay is to evaluate the inhibition (% inhibition and IC50 values) of small molecule inhibitors by using a Luminescent based ADP-Glo assay. CDK1/Cyclin B1 catalyzes the production of ADP from ATP. ADP-Glo assay monitors ADP producing biochemical reactions. ADP-Glo is performed in 2 steps upon completion of kinase reaction: a combined termination of kinase reaction and depletion of remaining ATP in the first step, and conversion of generated ADP to ATP and the newly produced ATP to light output using luciferase/luciferin reaction in the second step. The luminescent signal generated is proportional to the ADP concentration produced and is correlated with the kinase activity. CDK1/Cyclin B1 was purchased from Carna (Cat 04-102). Typical reaction solutions (10 uL final reaction volume) contained 2% DMSO (f inhibitor), 10 mM MgCl2, 1 mM EGTA, 0.05% BSA, 2 mM DTT, 80 uM ATP (ATP Km=78.6 uM), 0.01% Brig-35, 0.75 uM substrate, and 4.917 nM CDK1/Cyclin Bl enzyme complex in 50 mM HEPES buffer at pH 7.5. The assay was initiated with the addition of ATP-containing substrate solution, following a 30-minute pre-incubation of enzyme and inhibitor at room temperature in the reaction mixture. The reaction was stopped after 90 minutes at room temperature by the addition of 10 uL of ADP-GLO Reagent. After a 90 minute incubation, 20 uL of Kinase Detection Reagent was added. Samples were incubated for 40 minutes, after which plate well luminescence was measured on a Envision microplate reader. The IC50 determinations were made from a plot of the fractional velocity as a function of inhibitor concentration fit to the 4 parameters IC50 equation.

Another assay deals with CDK4/Cyclin D1 (Homo sapiens (Human), UniProt P11802). Kind of assay: CDK4/Cyclin D1 CHEF Assay (AQT0258 peptide). In kind it is biochemical. As to conditions: 200 uM ATP, read-out: CDK4/ CyclinD1 AQT IC50. From the text:
CDK4/Cyclin D1 CHEF Assay
The purpose of CDK4/Cyclin Dl assay is to evaluate the inhibition (% inhibition and IC50 values) of small molecule inhibitors by using a Chelation-Enhance Fluorescence (CHEF) assay. In a CHEF assay, phosphorylation of a peptide substrate results in proportional increase in fluorescence. CHEF kinase assay use peptide substrates containing a synthetic alpha-amino acid with a side chain bearing an 8-hydroxyquinoline derivative (sulfonamido-oxide, Sox). Upon phosphorylation of a nearby serine, threonine or tyrosine and in the presence of Mg(II), the spectral properties of the Sox residue are altered, emitting 485 nm wavelength light when excited with a 360 nm wavelength light source. CDK4/Cyclin D1 catalyzes the phosphoryl transfer to the SOX-labeled substrate peptide AQT0258 from Assayquant Technologies. Typical reaction solutions contained 2% DMSO (+/−inhibitor), 10 mM MgCl2, 1 mM DTT, 200 uM ATP (ATP Km=195.2 uM), 0.012% Brig-35, 10 uM AQT0258 peptide, 0.02% BSA, 1% Glycerol, 0.55 mM EGTA, 2.5 nM CDK4/Cyclin D1 in 54 mM HEPES buffer at pH 7.5. The reaction was initiated with the addition of substrate solution, following a 30-minute pre-incubation of enzyme and inhibitor at 22° C. in the reaction mix. Reactions were allowed to proceed for 3 hrs at 22° C., followed by fluorescence read of the reaction. The IC50 determinations were made from a plot of the fractional velocity as a function of inhibitor concentration fit to the 4 parameters IC50 equation.

Assay [1] deals with CDK2/Cyclin E1 full length (Homo sapiens (Human), UniProt P24941). As to the kind of experiment: CDK2/Cyclin E1 Full Length ADP-Glo Kinase Assay. In kind it is biochemical. Particulars: 20 uM ATP, read-out: CDK2/ CyclinE1 IC50. The procedure:
CDK2/Cyclin E1 Full Length ADP-Glo Kinase Assay
The purpose of CDK2/Cyclin E1 assay is to evaluate the inhibition (% inhibition and IC50 values) of small molecule inhibitors by using a Luminescent based ADP-Glo assay. CDK2/Cyclin E1 full length catalyzes the production of ADP from ATP. ADP-Glo assay monitors ADP producing biochemical reactions. ADP-Glo is performed in 2 steps upon completion of kinase reaction: a combined termination of kinase reaction and depletion of remaining ATP in the first step, and conversion of generated ADP to ATP and the newly produced ATP to light output using luciferase/luciferin reaction in the second step. The luminescent signal generated is proportional to the ADP concentration produced and is correlated with the kinase activity. CDK2/Cyclin E1 was purchased from Eurofins (Cat 14-475M). Typical reaction solutions (10 uL final reaction volume) contained 2% DMSO (f inhibitor), 10 mM MgCI2, 1 mM EGTA, 0.05% BSA, 2 mM DTT, 20 uM ATP (ATP Km=64.78 uM), 0.01% Brig-35, 0.75 uM substrate, and 0.328 nM wild-type full length CDK2/Cyclin E1 enzyme complex in 50 mM HEPES buffer at pH 7.5. The assay was initiated with the addition of ATP-containing substrate solution, following a 30-minute pre-incubation of enzyme and inhibitor at room temperature in the reaction mixture. The reaction was stopped after 90 minutes at room temperature by the addition of 10 uL of ADP-GLO Reagent. After a 90 minute incubation, 20 uL of Kinase Detection Reagent was added. Samples were incubated for 40 minutes, after which plate well luminescence was measured on a Envision microplate reader. The IC50 determinations were made from a plot of the fractional velocity as a function of inhibitor concentration fit to the 4 parameters IC50 equation.

In the next assay the test system is OVCAR-3 cells. As to the kind of experiment: Cell Growth Inhibition, OVCAR-3 (CellTiterGlo, 6 days). As to conditions: Homo sapiens, 144 h; OVCAR-3, 6-day treatment, CellTiterGlo 2.0. In kind it is cell-based.
Description: as §1

Chain of CDK4/Cyclin D1 (P11802 whole entry): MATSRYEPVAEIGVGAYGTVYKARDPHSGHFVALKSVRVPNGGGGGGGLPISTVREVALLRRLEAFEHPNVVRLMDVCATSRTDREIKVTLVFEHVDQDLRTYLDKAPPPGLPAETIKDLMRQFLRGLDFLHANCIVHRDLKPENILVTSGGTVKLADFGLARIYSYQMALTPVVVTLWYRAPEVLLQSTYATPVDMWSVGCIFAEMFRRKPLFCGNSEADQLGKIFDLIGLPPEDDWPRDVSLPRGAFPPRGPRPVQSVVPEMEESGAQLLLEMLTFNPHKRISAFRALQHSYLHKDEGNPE
Chain of CDK4/Cyclin D1 (P24385 whole entry partner): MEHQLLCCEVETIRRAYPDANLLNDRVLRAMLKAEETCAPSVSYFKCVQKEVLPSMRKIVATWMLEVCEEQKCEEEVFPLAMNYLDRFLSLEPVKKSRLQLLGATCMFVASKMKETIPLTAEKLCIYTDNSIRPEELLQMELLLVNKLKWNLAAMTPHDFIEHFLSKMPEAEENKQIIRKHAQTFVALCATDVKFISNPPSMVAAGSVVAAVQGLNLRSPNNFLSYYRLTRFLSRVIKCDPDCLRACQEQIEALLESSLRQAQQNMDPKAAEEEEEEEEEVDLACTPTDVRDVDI
Chain of CDK6/Cyclin D3 (Q00534 whole entry): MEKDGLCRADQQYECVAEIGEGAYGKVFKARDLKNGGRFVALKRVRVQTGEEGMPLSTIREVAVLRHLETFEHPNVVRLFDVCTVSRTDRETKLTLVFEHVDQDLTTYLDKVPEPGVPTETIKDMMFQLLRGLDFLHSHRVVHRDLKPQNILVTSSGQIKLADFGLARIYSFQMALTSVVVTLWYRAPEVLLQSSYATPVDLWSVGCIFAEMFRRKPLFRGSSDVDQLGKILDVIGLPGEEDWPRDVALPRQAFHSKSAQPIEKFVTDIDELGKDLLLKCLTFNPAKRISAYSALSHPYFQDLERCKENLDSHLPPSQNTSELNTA
Chain of CDK6/Cyclin D3 (P30281 whole entry partner): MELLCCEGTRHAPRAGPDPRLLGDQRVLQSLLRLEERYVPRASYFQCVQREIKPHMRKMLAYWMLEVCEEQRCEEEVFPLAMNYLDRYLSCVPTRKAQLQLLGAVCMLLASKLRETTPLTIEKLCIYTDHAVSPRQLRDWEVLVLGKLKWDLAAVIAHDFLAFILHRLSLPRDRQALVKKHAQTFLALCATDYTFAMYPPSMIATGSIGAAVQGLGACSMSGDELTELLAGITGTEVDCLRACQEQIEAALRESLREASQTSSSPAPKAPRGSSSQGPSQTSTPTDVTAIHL

Take `O=S(=O)(C1CC1)N1CCC(Nc2ncc3cc(C(F)F)cc(N4CC5(CNCC5F)C4)c3n2)CC1` (stereo not drawn) [Example 104, N-(1-(cyclopropylsulfonyl)piperidin-4-yl)-6-(difluoromethyl)-8-(8-fluoro-2,6-diazaspiro[3.4]octan-2-yl)quinazolin-2-amine]: the IC50 with MCF-7 cells is 200 to 500 nM; on CDK6/Cyclin D3, below 200 nM; against CDK1/Cyclin B1 it was below 200 nM; on CDK4/Cyclin D1, below 200 nM; in assay [1] it was below 200 nM; with OVCAR-3 cells it was 200 to 500 nM.

`CS(=O)(=O)N1CCC(Nc2ncc3cc(C(F)F)cc(C4CC(O)(C(F)F)C4)c3n2)CC1` (stereo not drawn) [Example 113, 1-(difluoromethyl)-3-(6-(difluoromethyl)-2-((1-(methylsulfonyl)piperidin-4-yl)amino)quinazolin-8-yl)cyclobutan-1-ol]: the IC50 in the assay with MCF-7 cells is 200 to 500 nM; on CDK6/Cyclin D3, below 200 nM; at CDK1/Cyclin B1, below 200 nM; on CDK4/Cyclin D1 it was below 200 nM; in assay [1], below 200 nM; with OVCAR-3 cells, 200 to 500 nM.

As to `CN1CC2(CC(n3cc(Nc4ncc5cc(C(F)F)cc(N6CCC(C#N)(C7CC7)C6)c5n4)cn3)C2)C1` (stereo not drawn) [Example 60, 3-cyclopropyl-1-(6-(difluoromethyl)-2-((1-(2-methyl-2-azaspiro[3.3]heptan-6-yl)-1H-pyrazol-4-yl)amino)quinazolin-8-yl)pyrrolidine-3-carbonitrile], the IC50 is 500 to 2000 nM in the assay with MCF-7 cells; below 200 nM on CDK6/Cyclin D3; 500 to 2000 nM against CDK1/Cyclin B1; below 200 nM on CDK4/Cyclin D1; 200 to 500 nM in assay [1]; 500 to 2000 nM in the assay with OVCAR-3 cells.

On to `CS(=O)(=O)N1CCC(Nc2ncc3cc(C(F)F)cc(N4CC5(CCNCC5(F)F)C4)c3n2)CC1` [Example 94, 8-(5,5-difluoro-2,7-diazaspiro[3.5]nonan-2-yl)-6-(difluoromethyl)-N-(1-(methylsulfonyl)piperidin-4-yl)quinazolin-2-amine], for which the IC50 in the assay with MCF-7 cells was 500 to 2000 nM; on CDK6/Cyclin D3, below 200 nM; against CDK1/Cyclin B1, below 200 nM; at CDK4/Cyclin D1, below 200 nM; in assay [1] it was below 200 nM; with OVCAR-3 cells, 500 to 2000 nM.

`CS(=O)(=O)N1CCC(Nc2ncc3cc(C(F)F)cc(C4CC5(C4)CN(CC(F)(F)CO)C5)c3n2)CC1` [Example 112, 3-(6-(6-(difluoromethyl)-2-((1-(methylsulfonyl)piperidin-4-yl)amino)quinazolin-8-yl)-2-azaspiro[3.3]heptan-2-yl)-2,2-difluoropropan-1-ol]: the IC50 with MCF-7 cells was 200 to 500 nM; on CDK6/Cyclin D3, below 200 nM; against CDK1/Cyclin B1 it was below 200 nM; at CDK4/Cyclin D1 it was below 200 nM; in assay [1], below 200 nM; in the assay with OVCAR-3 cells, below 200 nM.

For `CS(=O)(=O)N1CCC(Nc2ncc3cccc(C4CC5(CNCCO5)C4)c3n2)CC1` (stereo not drawn) [Example 110, N-(1-(methylsulfonyl)piperidin-4-yl)-8-(5-oxa-8-azaspiro[3.5]nonan-2-yl)quinazolin-2-amine], the IC50 was 500 to 2000 nM in the assay on MCF-7 cells; below 200 nM at CDK6/Cyclin D3; below 200 nM against CDK1/Cyclin B1; below 200 nM at CDK4/Cyclin D1; below 200 nM in assay [1]; 500 to 2000 nM in the assay on OVCAR-3 cells.

For `CC(C)(F)CN1CCC2(CC(c3cc(C(F)F)cc4cnc(NC5CCN(S(C)(=O)=O)CC5)nc34)C2)C1` (stereo not drawn) [Example 103, 6-(difluoromethyl)-8-(6-(2-fluoro-2-methylpropyl)-6-azaspiro[3.4]octan-2-yl)-N-(1-(methylsulfonyl)piperidin-4-yl)quinazolin-2-amine], the IC50 with MCF-7 cells is 200 to 500 nM; at CDK6/Cyclin D3, below 200 nM; against CDK1/Cyclin B1 it was below 200 nM; at CDK4/Cyclin D1, below 200 nM; in assay [1] it was below 200 nM; in the assay on OVCAR-3 cells, 500 to 2000 nM.
